Literature values as cited in patent publication US20120040397A1, “Photo-Crosslinked Nucleic Acid Hydrogels” (priority 2008, published 2012).

How the values were obtained:
[1] = molecular target: T1, PPAR-gamma (Homo sapiens, UniProt P37231); conditions: context-specific, depends on cell type
T1 sequence (P37231 1-505): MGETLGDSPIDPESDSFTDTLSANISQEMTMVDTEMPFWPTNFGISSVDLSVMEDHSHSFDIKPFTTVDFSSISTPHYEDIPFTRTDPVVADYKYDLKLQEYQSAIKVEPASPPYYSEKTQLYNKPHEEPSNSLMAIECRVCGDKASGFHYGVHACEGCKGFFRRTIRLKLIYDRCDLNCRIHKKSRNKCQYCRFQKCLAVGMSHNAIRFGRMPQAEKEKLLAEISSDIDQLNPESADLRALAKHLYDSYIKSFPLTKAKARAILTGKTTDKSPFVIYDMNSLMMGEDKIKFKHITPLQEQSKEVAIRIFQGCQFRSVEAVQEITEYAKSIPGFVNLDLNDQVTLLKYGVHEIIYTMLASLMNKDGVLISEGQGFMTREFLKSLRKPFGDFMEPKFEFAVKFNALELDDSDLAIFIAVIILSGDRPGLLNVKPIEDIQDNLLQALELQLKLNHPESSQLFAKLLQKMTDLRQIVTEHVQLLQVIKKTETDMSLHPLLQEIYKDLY

[2] = in vivo

O=C1NC(=O)C(Cc2ccc3cc(OCc4ccccc4F)ccc3c2)S1 (stereo not drawn) [netoglitazone, 5-[{6-(2-fluorobenzyl)oxy-2-naphthyl}methyl]-2,4-thiazolidinedione]
PPAR-gamma modulation [1]: full agonist of PPAR-gamma and as a partial agonist or antagonist in others
efficacy in lowering plasma glucose, insulin, and triglyceride levels versus pioglitazone and troglitazone [2]: more efficacious
potency relative to rosiglitazone [2]: about three-fold
